The source of these data is BindingDB's records for doi:10.7270/Q2CN72C0 (Burnham Center For Chemical Genomics, 2010).

A value given as a limit tells only on which side of the number the result lay.

In the assay the target is T1, Nucleotide-binding oligomerization domain-containing protein 1 (Homo sapiens, UniProt Q9Y239).
T1 sequence (Q9Y239 whole entry): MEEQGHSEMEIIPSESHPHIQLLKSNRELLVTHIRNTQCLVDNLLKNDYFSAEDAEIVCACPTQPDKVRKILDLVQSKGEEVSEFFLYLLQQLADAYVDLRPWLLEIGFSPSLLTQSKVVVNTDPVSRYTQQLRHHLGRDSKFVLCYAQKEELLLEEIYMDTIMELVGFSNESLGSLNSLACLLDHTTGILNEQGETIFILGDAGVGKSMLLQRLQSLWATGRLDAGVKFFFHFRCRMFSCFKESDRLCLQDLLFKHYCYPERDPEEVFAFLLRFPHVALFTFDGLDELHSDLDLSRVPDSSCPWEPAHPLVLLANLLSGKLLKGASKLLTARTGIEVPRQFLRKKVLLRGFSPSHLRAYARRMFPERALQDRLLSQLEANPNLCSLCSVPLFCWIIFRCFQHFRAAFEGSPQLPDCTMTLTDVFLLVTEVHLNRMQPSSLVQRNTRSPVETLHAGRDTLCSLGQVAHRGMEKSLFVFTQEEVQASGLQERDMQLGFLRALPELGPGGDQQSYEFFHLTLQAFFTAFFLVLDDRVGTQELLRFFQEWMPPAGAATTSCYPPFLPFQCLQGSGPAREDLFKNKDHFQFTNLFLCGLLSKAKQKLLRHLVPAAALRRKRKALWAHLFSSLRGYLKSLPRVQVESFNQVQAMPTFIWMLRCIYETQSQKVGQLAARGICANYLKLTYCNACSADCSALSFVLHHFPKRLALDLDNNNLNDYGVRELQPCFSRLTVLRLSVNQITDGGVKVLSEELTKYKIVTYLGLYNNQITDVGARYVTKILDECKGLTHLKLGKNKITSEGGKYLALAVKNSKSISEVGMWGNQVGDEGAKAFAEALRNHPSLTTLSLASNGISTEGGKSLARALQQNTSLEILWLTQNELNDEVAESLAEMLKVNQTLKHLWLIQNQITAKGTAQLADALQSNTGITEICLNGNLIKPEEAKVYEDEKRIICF
Kind of assay: inhibition of NOD1-driven NF-kB reporter – cell-based, luminescence, uHTS, primary screen (AID 1578).
Consider `Cc1cc(CN=Nc2ncnc(N)c2[N+](=O)[O-])c(C)n1-c1ccccc1`, for which the response was half-maximal at 4.14 µM (EC50).
For the compound `Cc1cc(SCC(=O)OCC(=O)C(C#N)c2nc3ccccc3[nH]2)c(C)cc1Br` (stereo not given), the EC50 (usually the concentration that produces a half-maximal response) is greater than 20 µM.
In the case of `O=C1C(=O)N(c2nccs2)C(c2ccccc2)C1C(=O)c1ccc2c(c1)OCCO2` (stereo not given), the EC50 is 11.5 µM.
Turning to `Oc1cccc(CN=Nc2ccc(Cl)nn2)c1O`, the EC50 was greater than 20 µM.
Consider `CCCOC1=CC(=O)C(C=NNC(=S)Nc2ccccc2[N+](=O)[O-])C=C1` (stereo not given) [1-(2-nitrophenyl)-3-[[(E)-(6-oxo-4-propoxy-1-cyclohexa-2,4-dienylidene)methyl]amino]thiourea], for which the EC50 is 11.9 µM.
Compound `C=CCN1C(=O)C(=NNC(=S)Nc2cccc(C)c2)c2ccccc21` [1-(3-methylphenyl)-3-[(Z)-(2-oxidanylidene-1-prop-2-enyl-indol-3-ylidene)amino]thiourea] showed an EC50 of 1.09 µM.
As for `CCCCCCC1=Cc2c/c(=C3/NN=C(c4ccccc4OC)O3)c(=O)oc2=CC1=O` [6-Hexyl-7-hydroxy-3-[5-(2-methoxy-phenyl)-[1,3,4]oxadiazol-2-yl]-chromen-2-one], the EC50 was determined as 6.54 µM.
Under `CCCCCCC1=Cc2c/c(=C3/NN/C(=C4/C=CC=CC4=O)O3)c(=O)oc2=CC1=O` [(3E)-6-hexyl-3-[(5E)-5-(6-oxocyclohexa-2,4-dien-1-ylidene)-1,3,4-oxadiazolidin-2-ylidene]chromene-2,7-dione] stands 4.51 µM; under `Cc1ccc(O)c(/N=C/C2=CC(Cc3ccccc3)C=C([N+](=O)[O-])C2=O)c1` (stereo not given) [(6E)-6-[[(5-methyl-2-oxidanyl-phenyl)amino]methylidene]-2-nitro-4-(phenylmethyl)cyclohexa-2,4-dien-1-one], 6.21 µM; under `Cc1ccc(C)c(SCC(=O)OCC(=O)C(C#N)c2nc3ccccc3[nH]2)c1` (stereo not given) [MLS000392255], greater than 20 µM.
Under `Cc1cc(CN=Nc2nc(N)ncc2[N+](=O)[O-])c(C)n1-c1ccccc1F` [MLS000392273] stands 4.64 µM; under `COc1ccc(NS(=O)(=O)c2ccc(N=NC(C)c3ccncc3)c([N+](=O)[O-])c2)cc1` (stereo not given) [MLS000393523], 4.33 µM; under `O=C1C([N+](=O)[O-])=CC(Cl)=CC1CN=Nc1ccccn1` (stereo not given) [MLS000539830], 9.12 µM.
`CCOC(=O)c1sc(N2C(=O)C(=O)C(C(=O)c3ccco3)C2c2cccc([N+](=O)[O-])c2)nc1C` (stereo not given) [MLS001082998]: the EC50 is greater than 20 µM.
The result for `Oc1c(Br)cc(Br)cc1CN=Nc1ccc(Cl)nn1` [MLS001171109] reads greater than 20 µM.
In the case of `C=CCN1C(=O)C(=NNC(=S)Nc2cccc(OC)c2)c2ccccc21` [SMR000132469], the EC50 was greater than 20 µM.
In turn, `CCOc1ccc(-c2csc(/C(C#N)=C/C3C=CC(=O)C([N+](=O)[O-])=C3)n2)cc1` (stereo not given) [SMR000237723] had an EC50 of 1.52 µM.
Compound `CN1C(=O)C(=NNC(=S)Nc2ccccc2F)c2cc(S(=O)(=O)N3CCOCC3)ccc21` [SMR000314843] returned an EC50 greater than 20 µM.
Regarding `Cc1cc(N=NCc2ccccc2[N+](=O)[O-])nc(-n2nc(C)cc2C)n1` [SMR000426946], it took 6.21 µM to reach a half-maximal effect (EC50).
Under `COc1cc(CN=Nc2nc3c(c(=O)n(C)c(=O)n3C)n2Cc2ccccc2)ccc1OC(=O)c1ccco1` [[4-[[(7-benzyl-1,3-dimethyl-2,6-dioxopurin-8-yl)hydrazinylidene]methyl]-2-methoxyphenyl] furan-2-carboxylate] stands 5.22 µM.
